Results from publication PMC4721142, “Randomized controlled studies on the efficacy of antiarthritic agents in inhibiting cartilage degeneration and pain associated with progression of osteoarthritis in the rat” (Arthritis Research & Therapy, 2016).
Where two headings read alike, the source gives them in different places.

Experiments:
NF-κB = assay: TNF-α-stimulated NF-κB dual luciferase reporter assay in HeLa cells; type: cell-based
Experimental: NF-κB activity was assessed using a previously described dual plasmid reporter system. HeLa cells were transfected with NF-κB luciferase (Stratagene Products Division, Agilent Technologies, La Jolla, CA, USA) and pRLuc-N3 (PerkinElmer, Waltham, MA, USA) at an 8:1 ratio, respectively, in triplicate. […] NF-κB activity was measured 5 h later with a Dual-Glo Luciferase Assay (Promega, Madison, WI, USA) and an Omni plate reader (BMG Labtech, Cary, NC, USA). The ratio of firefly luciferase luminescence (NF-κB reporter) to Renilla luciferase luminescence (control) was normalized for the number of viable transfected cells. Data are reported as a ratio of activity of viable treated cells over the activity of cells not exposed to TNF-α or drug (fold stimulation above basal untreated levels of activity). The viability of HeLa cells with and without drug was also measured using a CellTiter-Glo luminescent viability assay (Promega). […]
NF-κB activity was assessed in HeLa cells that were transiently transfected with two reporter constructs as described in the manuscript. Agents were tested for their ability to block TNF- […]
Expression of the luciferase from the Renilla construct was used as a measure of viability, which was confirmed with a cytotoxicity assay (see later section).

HeLa cells = assay: HeLa cell viability (CellTiter-Glo)
Experimental: NF-κB activity was assessed using a previously described dual plasmid reporter system. HeLa cells were transfected with NF-κB luciferase (Stratagene Products Division, Agilent Technologies, La Jolla, CA, USA) and pRLuc-N3 (PerkinElmer, Waltham, MA, USA) at an 8:1 ratio, respectively, in triplicate. […] NF-κB activity was measured 5 h later with a Dual-Glo Luciferase Assay (Promega, Madison, WI, USA) and an Omni plate reader (BMG Labtech, Cary, NC, USA). The ratio of firefly luciferase luminescence (NF-κB reporter) to Renilla luciferase luminescence (control) was normalized for the number of viable transfected cells. Data are reported as a ratio of activity of viable treated cells over the activity of cells not exposed to TNF-α or drug (fold stimulation above basal untreated levels of activity). The viability of HeLa cells with and without drug was also measured using a CellTiter-Glo luminescent viability assay (Promega).
In Vitro Hela Cell Drug Toxicity Testing
Potential drug toxicity was measured using a CTG assay and HeLa cells (Promega). Drugs not tested in
this assay were tested in either of the in vitro toxicity assays already presented (synovial or chondrocyte
Table 3- Drug toxicity measured using a CTG assay and HeLa cells.

[1] = Comparison of in vitro screens: overlapping effective and nontoxic range; conditions: for Overlapping effective and nontoxic range: inhibits with minimal or no toxicity to synovium or cartilage, overlapping range if effective in more than one assay;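 as to all read-outs here: compares non-toxic ranges in synovial cells and chondrocytes with effective ranges against NFkB, MMP-13 and osteoclasts, giving their overlap as the predicted efficacy range in uM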
[2] = published half-life; cited from earlier work
IKK-2 = conditions: reported; cited from earlier work
IKK-1 = conditions: reported, cited from earlier work
[3] = tested on: Normal human articular chondrocytes; assay: Cytotoxicity to chondrogenic pellets (CellTiter-Blue)
Experimental: (§1) Differentiated chondrogenic pellets were used both to test the ability of drugs to block MMP-13 activity and to test for drug toxicity. […] Supernatants were collected and analyzed for MMP-13 using an enzyme-linked immunosorbent assay (GE Healthcare Life Sciences, Little Chalfont, UK). Cytotoxicity to pellets was assessed using CellTiter-Blue (Promega).

SW982 [4] = assay: Synovial toxicity (CellTiter-Glo), with or without TNF-α
Experimental: (§2) Viability was measured with the CellTiter-Glo luminescent viability assay (Promega). […] To more accurately predict the effects of the drugs on osteoarthritic synovium, cells were tested with or without TNF-α (20 ng/ml; BioSource).
(§3) In Vitro Toxicity Testing with a Synovial Cell Line
(§4) Compounds were tested for synovial toxicity using SW982 cells alone or in the presence of TNF as

RAW 264.7 cells = assay: RANKL-mediated osteoclastogenesis / matrix resorption (Osteologic) assay; type: cell-based, murine
Method in brief: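 Agents were tested during or after differentiation. Wells were bleached and resorption pits were quantified by image analysis versus RANKL-only controls, using an unpaired t-test.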

MMP-13 = MMP-13 ELISA on supernatants of TNF-α-treated chondrogenic pellets; type: cell-based, human
[5] = tested on: Normal human articular chondrocytes
Experimental: as §1

SW982 [6] = tested on: SW982
Experimental: as §2, §3, §4

IκBα phosphorylation = tested on: IκBα phosphorylation; design: method as in PMID 18849610; conditions: reported; read-out: IC50 for block of IκBα phosphorylation; cited from earlier work
TNF-α in human monocytes = tested on: TNF-α in human monocytes; design: method as in PMID 15316093; conditions: reported; read-out: IC50, inhibits TNF-α in human monocytes; cited from earlier work
[7] = tested on: IL-8 and IL-6 in synovial fibroblasts; design: method as in PMID 15316093; conditions: reported; read-out: IC50, blocks IL-8 and IL-6 in synovial fibroblasts; cited from earlier work
[8] = tested on: rat inflammatory arthritis model; design: method as in per Calbiochem; conditions: 30 mg/kg; ref per Calbiochem; cited from earlier work

| Structure (SMILES) | Effective against NF κβ (p<0.05) (NF-κB) | Inhibition of NF-κB at the concentrations tested (NF-κB) | Non-toxic concentrations (HeLa cells) | Non-toxic & predicted range of efficacy [1] [µM] | Overlapping effective and nontoxic range [1] | IC50 (IKK-2) [nM] | Non-toxic range (Chondrocyte) [3] [µM] | Non-toxic range (Synovial) (SW982 [4]) [µM] | other results |
| --- | --- | --- | --- | --- | --- | --- | --- | --- | --- |
| Cc1ccc2nc(NCCN)c3ncc(C)n3c2c1 [BMS-345541] | 1 to 15.6 µM | failed to inhibit | 0.24 to 15.6 µM | 0.24 to 7.8 | 0.244 µM | 300 | 0.24 to 15.6 | 0.24 to 7.8 | t 1/2 [2]: 2.2 h; IC50 (IKK-1): 4000 nM |
| [C-]#[O+].[C-]#[O+].[C-]#[O+].[C-]#[O+].[C-]#[O+].[C-]#[O+].[Cl][Ru][Cl].[Cl][Ru][Cl] [CORM-2, tricarbonyldichlororuthenium(II) dimer] |  |  |  | 20 to 40 | 20–40+ μM |  |  |  | Lowest inhibitory concentration, matrix resorption (RAW 264.7 cells): 20 µM; Effective range against MMP-13 (MMP-13): 10 – 40 M; Non-toxic range (Chondrocyte) [5]: 0.625 to 40 M; Non-toxic range (Synovial) (SW982 [6]): 2.5 to 40 M |
| O=C(Nc1cc(C(F)(F)F)cc(C(F)(F)F)c1)c1cc(Cl)ccc1O [IKK inhibitor V, N-(3,5-bis-trifluoromethyl-phenyl)-5-chloro-2-hydroxy-benzamide] | Only at toxic |  | None | 1.625 to 26 | 1.625 to 26 µM |  |  |  | Toxic concentrations (p<0.05) (HeLa cells; human): 0.101 to 26 M; IC50 (IκBα phosphorylation): 250 nM; Non-toxic range (Chondrocyte) ([3]; male, human, 24 h): 0.4 to 13 µM; Non-toxic range (Synovial) (SW982 [4]; human): 0.1 to 0.2 µM |
| NC(=O)Nc1sc(-c2ccc(F)cc2)cc1C(N)=O [IKK-2 inhibitor IV, [5-(p-Fluorophenyl)-2-ureido]thiophene-3-carboxamide] | Not consistently | […] | […] |  |  | […] |  | […] | Toxic concentrations (p<0.05) (HeLa cells): […]; IC50 (TNF-α in human monocytes): 150 to 2500 nM; IC50 [7]: 100 nM; Reduced paw edema [8]: ~100% |
| N#Cc1c(C2CCNCC2)cc(-c2c(O)cccc2OCC2CC2)nc1N [IKK inhibitor VIII, 2-amino-6-(2-(cyclopropylmethoxy)-6-hydroxyphenyl)-4-(4-piperidinyl)-3-pyridinecarbonitrile] |  |  |  | 2 to 4 | 4 (toxicity to synovial cells) μM | 8.5 | 0.25 to 16 | 0.3 to 2 | minimal effective concentration (RAW 264.7 cells; Mus musculus, RAW264.7, 168 h, read-out: Lowest inhibitory concentration, matrix resorption): 0.5 µM; IC50 (IKK-1; ref per Calbiochem): 250 nM |
